A word on the ED50: it is the midpoint of the dose-response relation. For orientation: IC50 means the concentration that gives 50% inhibition.

Consider four compounds from patent US5026699A, “Use of 5,11-dihydro-6H-pyrido[2,3-b][1,4]-benzodiazepin-6-ones substituted in the 11-position for treating bradycardia and bradyarrhythmia in human and veterinary medicine” (Dr. Karl Thomae GmbH, priority 1988, dated 1991).

The subject of test [1] is acetylcholine effect on bronchi (expiration resistance). Nature of the test: Inhibition of the effect of acetylcholine on bronchi in guinea pigs. The test is classed as in vivo, guinea pig. The note with it: Cavia porcellus, 5 min; read-out: -log ED50, Bronchi (converted). The procedure:
(§1) 5 minutes after the administration of the test substance, 10 microgram/kg of acetylcholine were simultaneously injected intravenously and intra-arterially into anesthetized guinea pigs. The heart rate was recorded directly by extracorporeal derivation of the ECG, the expiration resistance according to Konzett-Rossler and contraction of the exposed bladder. In order to determine the inhibition of the acetylcholine activity on the organs under investigation, dosage/activity curves were recorded and from them -log ED50 values were determined.

Test [2] deals with acetylcholine effect on bladder contraction. Nature of the test: Inhibition of the effect of acetylcholine on the bladder in guinea pigs. It counts as in vivo, guinea pig. The note with it: Cavia porcellus, 5 min; read-out: -log ED50, Bladder (converted). How it is done:
as §1

For test [3], the system named is acetylcholine effect on heart rate. Nature of the test: Inhibition of the effect of acetylcholine on heart rate in guinea pigs. It counts as in vivo, guinea pig. The following applies: Cavia porcellus, 5 min; read-out: -log ED50, Heart (converted). The procedure: as §1
Test [4] has as its target T1, muscarinic receptors, submandibular gland (Rattus norvegicus, UniProt P08483).
T1 construct: All the organs were then homogenized in a Potter apparatus; from tissue; host or cells: submandibular gland of male Sprague-Dawley rats, homogenate
Nature of the test: Receptor binding test in vitro, 3H-NMS displacement, submandibular gland homogenate. The following applies: rat submandibular gland homogenate 1:400; 0.3 nanomolar 3H-NMS; 30° C., 45 minutes; read-out: Receptor Binding Tests IC50, Submandibular gland. The procedure: (§2) The organs were donated by male Sprague-Dawley rats weighing 180-220 g. After the heart and submandular gland and cerebral cortex had been removed, all other steps were carried out in ice cold Hepes HCl buffer (pH 7.4; 100 millimolar NaCl, 10 millimolar MgCl2). The whole heart was cut up with scissors. All the organs were then homogenized in a Potter apparatus.
(§3) For the binding test the homogenized organs were diluted as follows:
(§4) The homogenized organs were incubated at a certain concentration of the radioligand and at a series of concentrations of the non-radioactive test substances in an Eppendorf centrifuge tube at 30° C. Incubation lasted 45 minutes. The radioligand used was 0.3 nanomolar ^3 H--N- methylscopolamine (^3 H-NMS). Incubation was ended by the addition of ice cold buffer followed by vacuum filtration. The filters were rinsed with cold buffer and their radioactivity was determined. It represents the sum of specific and non-specific binding of ^3 H-NMS. The proportion of non-specific binding was defined as the radioactivity which was bound in the presence of 1 micromolar quinuclidinylbenzylate. Each measurement was taken four times. The IC50 values of the non-labelled test substances were determined graphically. They represent that concentration of test substance at which the specific binding of ^3 H-NMS to the muscarinic receptors in the various organs was inhibited by 50%.

The target in test [5] is T2, muscarinic receptors, heart (Rattus norvegicus, UniProt P10980).
T2 construct: The whole heart was cut up with scissors; from tissue; host or cells: whole heart of male Sprague-Dawley rats, homogenate
T2 sequence (P10980 1-466): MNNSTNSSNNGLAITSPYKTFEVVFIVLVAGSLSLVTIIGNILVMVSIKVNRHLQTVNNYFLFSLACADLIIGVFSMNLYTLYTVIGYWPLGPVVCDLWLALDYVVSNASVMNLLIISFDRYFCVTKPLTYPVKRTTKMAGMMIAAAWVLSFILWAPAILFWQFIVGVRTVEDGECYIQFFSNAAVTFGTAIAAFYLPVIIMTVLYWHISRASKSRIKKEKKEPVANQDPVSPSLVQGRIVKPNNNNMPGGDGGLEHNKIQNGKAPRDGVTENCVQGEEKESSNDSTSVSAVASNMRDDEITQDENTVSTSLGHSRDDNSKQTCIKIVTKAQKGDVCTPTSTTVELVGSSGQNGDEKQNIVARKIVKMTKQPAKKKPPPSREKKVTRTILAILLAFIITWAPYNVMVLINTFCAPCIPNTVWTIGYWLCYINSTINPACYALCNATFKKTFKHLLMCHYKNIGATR
As to the kind of experiment: Receptor binding test in vitro, 3H-NMS displacement, whole heart homogenate. The following applies: rat whole heart homogenate 1:400; 0.3 nanomolar 3H-NMS; 30° C., 45 minutes; read-out: Receptor Binding Tests IC50, Heart. The procedure:
as §2, §3, §4

The next test deals with vagal bradycardia (M2). As to the kind of experiment: M1/M2 selectivity in the rat: reduction of bradycardia caused by vagus stimulation. It counts as in vivo. The following applies: iv, 5 min, male THOM rats, i.v., dose reducing vagal bradycardia (M2) by 50%, 5 minutes after injection, read-out: -log ED50, Heart (converted). How it is done:
(§5) The dosage of the substances which reduced either the vagal bradycardia (M2) or the rise in blood pressure (M1) by 50% was determined graphically. For the results see Table II.

The target of test [6] is muscarinic receptors, cerebral cortex. As to the kind of experiment: Receptor binding test in vitro, 3H-NMS displacement, cerebral cortex homogenate. The following applies: rat cerebral cortex homogenate 1:3000; 0.3 nanomolar 3H-NMS; 30° C., 45 minutes; read-out: Receptor Binding Tests IC50, Cortex. The procedure:
as §2, §3, §4

In test [7] the test system is secretion of saliva initiated by pilocarpine. Nature of the test: Salivation-inhibiting effect in the rat (pilocarpine-induced). The test is classed as in vivo. The following applies: iv, male THOM rats anesthetized with urethane, i.v., dose reducing volume of saliva by 50%, 2 mg/kg s.c. pilocarpine, read-out: -log ED50, Salivation inhibition (converted). The procedure:
The secretion of saliva was initiated by subcutaneous administration of 2 mg/kg of pilocarpine. The saliva was absorbed with blotting paper and the surface area covered was measured every 5 minutes by planimetry. The dosage of the substance which reduced the volume of saliva by 50% was determined graphically. For the results see Table II.

In test [8] the test system is rise in blood pressure caused by McN-A-343 (M1). As to the kind of experiment: M1/M2 selectivity in the rat: reduction of rise in blood pressure caused by McN-A-343. It counts as in vivo. The note with it: iv, 5 min, male THOM rats, i.v., dose reducing rise in blood pressure (M1) caused by 0.3 mg/kg McN-A-343 by 50%, read-out: -log ED50, Blood pressure (converted). How it is done: as §5

T1 sequence (P08483 whole entry): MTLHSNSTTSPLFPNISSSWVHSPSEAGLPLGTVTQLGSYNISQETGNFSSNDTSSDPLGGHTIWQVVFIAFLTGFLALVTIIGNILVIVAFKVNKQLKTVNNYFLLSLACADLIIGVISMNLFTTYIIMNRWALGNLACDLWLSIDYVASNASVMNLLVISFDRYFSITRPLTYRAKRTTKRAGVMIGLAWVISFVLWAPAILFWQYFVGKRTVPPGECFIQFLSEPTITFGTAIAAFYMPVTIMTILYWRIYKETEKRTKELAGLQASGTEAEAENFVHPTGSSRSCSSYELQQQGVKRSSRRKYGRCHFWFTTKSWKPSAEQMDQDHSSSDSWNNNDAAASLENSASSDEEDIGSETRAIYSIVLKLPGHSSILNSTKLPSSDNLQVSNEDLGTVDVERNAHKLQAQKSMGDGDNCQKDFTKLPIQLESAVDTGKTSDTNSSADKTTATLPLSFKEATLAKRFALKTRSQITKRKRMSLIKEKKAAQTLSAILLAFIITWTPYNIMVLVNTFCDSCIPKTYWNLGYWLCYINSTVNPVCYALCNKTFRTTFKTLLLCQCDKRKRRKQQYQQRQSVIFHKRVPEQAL

With `CN1CCCC1CCNCC(=O)N1c2ccccc2C(=O)Nc2cccnc21` (stereo not drawn) [A, 5,11-dihydro-11-[[[2-(1-methyl-2-pyrrolidinyl)ethyl]amino]acetyl]-6H-pyrido[2,3-b][1,4]benzodiazepin-6-one], the results for the ED50 in test [1], in [2] and in test [3] were 0.102 µmol/kg, 0.537 µmol/kg and 0.0977 µmol/kg, respectively.
As for `CCN1CCCC1CN(C)CC(=O)N1c2ccccc2C(=O)Nc2cccnc21` (stereo not drawn) [B, 5,11-dihydro-11-[[[(1-ethyl-2-pyrrolidinyl)methyl]methylamino]acetyl]-6H-pyrido[2,3-b][1,4]benzodiazepin-6-one], the ED50 is 0.0347 µmol/kg in [1]; 0.00741 µmol/kg in the test on vagal bradycardia (M2); 1.17 µmol/kg in test [2]; 0.0457 µmol/kg in [3]; 0.813 µmol/kg in [7]; 0.141 µmol/kg in [8]. The IC50 was 50 nM in [4], 6 nM in [5] and 30 nM in test [6].
As for `CCN(CC)CC1CCCCN1CC(=O)N1c2ccccc2C(=O)Nc2cccnc21` (stereo not drawn) [C, 11-[[2-[(diethylamino)methyl]-1-piperidinyl]acetyl]-5,11-dihydro-6H-pyrido[2,3-b][1,4]benzodiazepin-6-one, reference compound], the ED50 with vagal bradycardia (M2) is 0.38 µmol/kg; in test [7], 10 µmol/kg.
Take `CN1[C@@H]2CC[C@H]1C[C@@H](OC(=O)C(CO)c1ccccc1)C2` (stereo partly drawn) [E, atropine, reference compound]: the ED50 was 0.0115 µmol/kg in the test on vagal bradycardia (M2), 0.0933 µmol/kg in [2], 0.02 µmol/kg in test [3] and 0.0457 µmol/kg in [8].
